Series [1] has as its system GL261 and B16F0 tumor blood vessels. As to the kind of experiment: Tumor vascular window model (vascular length density). In kind it is in vivo, C57BL6 mice. On the procedure:
Penicillin/streptomycin solution (200 μl; available from GIBCO™ Invitrogen Corporation, Carlsbad, Calif., United States of America) was injected into the hind limb of the mouse prior to preparation of the window chamber. The dorsal ventral window chamber was prepared using a 3-gram plastic frame, which was applied to the skin of a test animal and remained attached for the duration of the study. Briefly, the chamber was screwed together, and the epidermis was cut and left open with a plastic covering.
To prepare a test animal for application of the plastic frame, the dorsal midline was found along the animal's back, and a clip was placed to hold the skin in position. […]
GL261 and B16F0 cells were implanted into the dorsal skin fold window chamber. […] Scanned slides were analyzed using OPTIMAS® image analysis software (Bioscan, Inc., Edmonds, Wash., United States of America; available from Media Cybernetics, Silver Spring, Md., United States of America) or IMAGE-PRO® software (Media Cybernetics, Silver Spring, Md., United States of America) as described below.
Vascular center lines were positioned by OPTIMAS® software or IMAGE-PRO® software and verified by an observer blinded to the treatment groups. Tumor blood vessels were quantified using OPTIMAS® software, which quantified the vascular length density of blood vessel within the microscopic field. […]

In series [2] the test system is GL261 and B16F0 tumor blood flow. In words: Power Doppler sonography of tumor blood flow. In kind it is in vivo, C57BL6 mice. The source says: Power Doppler sonography was used to study the response of tumor blood vessels to ionizing radiation. This method utilizes amplitude to measure flow in microvasculature. Tumors were imaged with a 10-5 MHz ENTOS® linear probe (Advanced Technology Laboratories, Inc., Bothell, Wash., United States of America) attached to an HDI® 5000 diagnostic ultrasound system (Advanced Technology Laboratories, Inc., Bothell, Wash., United States of America).
Power Doppler sonography images were obtained with the power gain set to 82%. Care was taken to minimize motion artifact. A 20-frame cineloop sweep of the entire tumor was obtained with the probe perpendicular to the long axis of the lower extremity along the entire length of the tumor.
The images were analyzed using HDI® software (Advanced Technology Laboratories, Inc., Bothell, Wash., United States of America). This software allows direct evaluation of Power Doppler cineloop raw data. Color area was recorded for the entire tumor. […]
To determine whether inhibition of Flk-1-mediated signal transduction also enhances the cytotoxic effects of radiotherapy in established tumors, Power Doppler sonography was used to quantify blood flow in 1 cm diameter tumors treated with Flk-1 inhibitors and ionizing radiation. […] Blood flow was quantified by Power Doppler sonography on days 4 and 7 according to methods described in Example 3.

For series [3], the system named is HUVEC. In words: Radiation-induced apoptosis in endothelial cells (HUVEC). In kind it is cell-based, human. On the procedure:
FIG. 5 is a bar graph depicting an increased percentage of endothelial cells undergoing apoptosis in response to VEGF-R2 inhibition followed by radiotherapy. […] Cells were treated. with 6 Gy of radiation and stained 24 hours later. The percentage of cells undergoing apoptosis was determined for each of the treatment groups as described in Example 6. The mean percentage of apoptotic cells and the standard error of the mean were determined using 4 culture plates in each treatment group.
To determine whether Flk-1 inhibitors enhance radiation-induced intrinsic cell death mechanisms, radiation-induced apoptosis in HUVEC human primary culture endothelial cells, 3B11 murine endothelial cells, and human microdermal endothelial cells (HMEC) was studied following Flk-1 inhibition. […] Cells were then treated with 6 Gy of ionizing radiation. Cultures were stained to reveal apoptotic cells 24 hours later. Endothelial cell death was quantified by counting the number of apoptotic bodies in 100 cells.

For a further series, the system named is GL261 tumors. As to the kind of experiment: Tumor volume assessment / growth delay. The format is in vivo, C57BL6 mice. The method, then: GL261 tumors were generated by subcutaneous injection of 10^6 viable GL261 cells suspended in 0.2 ml of a 0.6% agarose solution into the right thigh of C57BL6 mice. […] An equal number of large and intermediate size tumors were present in each group. […] Control mice received identical doses and schedule of either SU5416 alone or radiation alone. Twice each week, tumor volumes were measured using skin calipers as previously described by […] et al., 1998; […] et al., 1995; and Staba et al., 1998. Tumor volumes were calculated using a formula: a×b×c/2, where a=maximal width dimension, b=maximal length dimension, and c=maximal depth dimension, which was derived from the formula for an ellipsoid (πd^3/6). Data were calculated as the percent of original (day 0) tumor volume and graphed as fractional tumor volume ±1 standard deviation for each treatment group. Variance was analyzed by the Kruskal-Wallis method (Kruskal & Wallis, 1952). Growth delay was determined as the number of days required for a tumor to reach a predetermined volume, for example three-fold the original volume, or a volume of 1 cm^3. […] In a second experiment, mice were randomly assigned to each of the four treatment groups for a total of 10 mice in each group. […] Flk-1 inhibition and radiation treatments were initiated fourteen days after the tumor cells had been injected and were performed as described herein above.

Series [4] deals with tumor blood flow (B16F0, LLC, GL261, D54 tumors). As to the kind of experiment: Restoration of tumor blood flow after radiotherapy (Doppler). In kind it is in vivo, mice. Particulars: SU5416 in combination with radiation, measured daily for 7 days; radiation-only controls restored flow by day 7. The source says:
FIG. 7 is a bar graph depicting inhibition of tumor revascularization via administration of a VEGF-R2 inhibitor. Doppler analysis of blood flow in four tumor types is shown on 3, 5, and 7 days following radiation treatment. Animals received radiation treatment alone (control) or in combination with SU5416. In control animals, tumor revascularization occurs within 7 days following radiation treatment. Tumor revascularization is repressed in animals receiving SU5416 in combination with radiation treatment. Open bars, B16F0 tumors; solid bars, LLC tumors; stippled bars, GL261 tumors; hatched bars, D54 tumors.
Tumor-bearing mice were generated as described in Example 1. […] Control animals were treated with radiation alone. Doppler analysis of tumor blood flow was measured daily for 7 days using the methods described in Example 3. In control animals receiving only radiation treatment, restoration of tumor blood flow was observed by day 7.

The test system of another series is EPCs in GI261 gliomas. In words: Endothelial progenitor cell (EPC) infiltration of irradiated tumor. In kind it is in vivo, mice. Particulars: SU5416 and radiation; tumor sections on days 1, 4 and 7. The method, then: EPCs were isolated from peripheral circulation, fixed with paraformaldehyde, and incubated with antibodies that specifically bind to Flk or to CD31. A fluorescently-labeled secondary antibody was used to detect Flk and CD31 (PECAM; platelet-endothelial cell adhesion molecule 1) proteins on the surface of EPCs.
Mice bearing GI261 gliomas, generated as described in Example 1, received radiation […] treatment of the tumor. EPCs were isolated from peripheral circulation and fluorescently labeled with Dil (1,1′-dioctadecyl-3,3,3′,3′-tetramethylindocarbocyanine perchlorate; available from Molecular Probes, Inc., Eugene, Oreg., United States of America). Labeled EPCs were then administered via tail vein injection to tumor-bearing mice immediately following tumor irradiation. Tumor sections were obtained on days 1, 4, and 7 following irradiation. In control mice, EPCs were detected in the perivascular space at day 4, and then proliferated and migrated into to the tumor by day 7.

For series [5] the following is noted: in vivo; cited from earlier work.
Another series deals with Flk-1. Particulars: Lin et al., 1998; cited from earlier work.
Series [6] has as its system HUVEC. Particulars: Lin et al., 1998; cited from earlier work.

Some results are limits rather than exact numbers.

With `Cc1cc(C)c(/C=C2\C(=O)Nc3ccccc32)[nH]1` [SU5416], the “time to complete destruction of tumor blood vessels” value in series [1] (0.75 mg administered 1 hour prior to 2 Gy, p=0.02 vs radiation alone) was at most 24 h. Besides, the “regression of tumor blood vessels, SU5416 alone” value in [1] (0.75 mg, absence of ionizing radiation) was “minimal regression of the tumor blood vessels and rapid restoration of vasculature”. In [2] (0.75 mg intraperitoneal 1 hour prior to irradiation, 3 Gy per day for 7 days, p=0.004 vs either treatment alone), the “reduction in tumor blood flow, SU5416 plus radiation” value is given as “significant reduction in tumor blood flow”. Moreover, in series [2] (0.75 mg intraperitoneal, 3 doses, no radiation, 1 cm GL261 and B16F0 tumors, days 4 and 7), the “reduction in tumor blood flow, SU5416 alone” value is given as “minimal reduction”. Moreover, in the series on HUVEC [3] (50 μM SU5416 or 10^8 pfu Ad.ExFlk plus 6 Gy, stained 24 hours later), the “percentage of apoptotic cells, with radiation” value was determined as 14%. The “percentage of cells undergoing apoptosis, no radiation” value in the series on HUVEC [3] (50 μM SU5416 or 10^8 pfu Ad.ExFlk, not exposed to ionizing radiation) is on record as 4%. Also, in the series on GL261 tumors (0.75 mg intraperitoneal on days 0, 4, 7 and 11, first experiment), the “tumor growth delay, SU5416 alone” value is “No growth delay”. In the series on GL261 tumors (first experiment (FIG. 6A), 0.75 mg i.p. ×4 plus 3 Gy ×8, p=0.01 vs radiation alone, p<0.009 vs SU5416 alone), the “tumor volume, SU5416 followed by radiation” value is “significantly reduced tumor volumes”. In addition, the “tumor volume, SU5416 and radiation” value in the series on GL261 tumors (second experiment (FIG. 6B), 10 mice per group, p=0.01 vs radiation alone, p=0.006 vs SU5416 alone) was “significantly reduced tumor volumes”. Also, in [4], the “tumor blood flow after radiation treatment” value was “tumor blood flow was repressed”. Also, in the series on EPCs in GI261 gliomas, the “extravasation of EPCs into the tumor” value is “extravasation of EPCs into the tumor was prevented”. Moreover, the plasma half-life in [5] was 1 to 2 h.

B1: ExFlk.6His: soluble extracellular component of Flk-1 tagged with 6 histidine residues (protein, UniProt P35918 20-762, looked up)
extracellular domain: ASVGLPGDFLHPPKLSTQKDILTILANTTLQITCRGQRDLDWLWPNAQRDSEERVLVTECGGGDSIFCKTLTIPRVVGNDTGAYKCSYRDVDIASTVYVYVRDYRSPFIASVSDQHGIVYITENKNKTVVIPCRGSISNLNVSLCARYPEKRFVPDGNRISWDSEIGFTLPSYMISYAGMVFCEAKINDETYQSIMYIVVVVGYRIYDVILSPPHEIELSAGEKLVLNCTARTELNVGLDFTWHSPPSKSHHKKIVNRDVKPFPGTVAKMFLSTLTIESVTKSDQGEYTCVASSGRMIKRNRTFVRVHTKPFIAFGSGMKSLVEATVGSQVRIPVKYLSYPAPDIKWYRNGRPIESNYTMIVGDELTIMEVTERDAGNYTVILTNPISMEKQSHMVSLVVNVPPQIGEKALISPMDSYQYGTMQTLTCTVYANPPLHHIQWYWQLEEACSYRPGQTSPYACKEWRHVEDFQGGNKIEVTKNQYALIEGKNKTVSTLVIQAANVSALYKCEAINKAGRGERVISFHVIRGPEITVQPAAQPTEQESVSLLCTADRNTFENLTWYKLGSQATSVHMGESLTPVCKNLDALWKLNGTMFSNSTNDILIVAFQNASLQDQGDYVCSAQDKKTKKRHCLVKQLIILERMAPMITGNLENQTTTIGETIEVTCPASGNPTPHITWFKDNETLVEDSGIVLRDGNRNLTIRRVRKEDGGLYTCQACNVLGCARAETLFIIEGAQEKTNLE
modifications: extracellular domain His6 tag
In the case of B1, in the series on Flk-1, the “activation of Flk-1” value was “blocks activation of Flk-1”. Moreover, the “VEGF-induced DNA synthesis and migration in HUVEC” value in the series with HUVEC [6] was “inhibits”.

Source of the values: US20030181377A1, “Inhibition of VEGF receptor signaling reverses tumor resistance to radiotherapy” (Vanderbilt University, priority 2002, published 2003).
